Numbered stars: 1 amine (or outer) side, 2 acyl side, 3 side chain; on linkers, the order of the positions; unused ones are H or OH. Bridge positions count the residues as written; N and C are the ends. Side chains are listed from the residue outwards. Peptide text beside a SMILES is read from it. * marks the point of attachment. C20 diacid = O=C(O)CCCCCCCCCCCCCCCCCCC(=O)*; γGlu = O=C(O)[C@H](CCC(=O)[*:2])N[*:1]; AEEA = NCCOCCOCC(=O)O
Key:
[1] = biological target: T1, human amylin receptor (amylin 3(a) receptor: human calcitonin receptor + RAMP-3) (Homo sapiens, UniProt O60896+P30988); assay: Assay (II)a functional assay, human amylin receptor (CRE luciferase, BHK cells); type: cell-based
T1 construct: expressed in transfected cells
T1 sequence (P30988 25-474): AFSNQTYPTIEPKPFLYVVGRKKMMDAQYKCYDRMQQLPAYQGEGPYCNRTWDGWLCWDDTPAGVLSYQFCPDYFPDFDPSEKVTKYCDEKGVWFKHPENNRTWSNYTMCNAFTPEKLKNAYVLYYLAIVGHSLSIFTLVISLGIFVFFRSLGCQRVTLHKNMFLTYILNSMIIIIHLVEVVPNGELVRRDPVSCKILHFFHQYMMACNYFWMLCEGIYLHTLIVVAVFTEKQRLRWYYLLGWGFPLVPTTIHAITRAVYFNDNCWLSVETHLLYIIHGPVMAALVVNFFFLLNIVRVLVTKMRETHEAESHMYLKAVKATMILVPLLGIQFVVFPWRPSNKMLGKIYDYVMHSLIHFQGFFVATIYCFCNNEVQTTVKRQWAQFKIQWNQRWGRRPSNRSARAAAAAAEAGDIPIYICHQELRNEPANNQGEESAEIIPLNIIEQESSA
T1 sequence (O60896 24-148 partner): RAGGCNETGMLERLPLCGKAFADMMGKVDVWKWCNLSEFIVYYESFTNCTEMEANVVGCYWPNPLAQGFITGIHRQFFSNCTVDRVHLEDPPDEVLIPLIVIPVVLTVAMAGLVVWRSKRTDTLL

rat amylin receptor = biological target: T2, rat amylin receptor (Rattus norvegicus, UniProt P32214+Q9JJ73); assay: Assay (VI) binding to the rat amylin receptor; conditions: rCTR bind IC50 divided by rAmylin-R bind IC50
T2 construct: expressed in transfected cells; host or cells: BHK tk'ts 13 (transient, FuGENE 6), membranes
T2 sequence (P32214 25-479 isoform P32214-2 limits assumed): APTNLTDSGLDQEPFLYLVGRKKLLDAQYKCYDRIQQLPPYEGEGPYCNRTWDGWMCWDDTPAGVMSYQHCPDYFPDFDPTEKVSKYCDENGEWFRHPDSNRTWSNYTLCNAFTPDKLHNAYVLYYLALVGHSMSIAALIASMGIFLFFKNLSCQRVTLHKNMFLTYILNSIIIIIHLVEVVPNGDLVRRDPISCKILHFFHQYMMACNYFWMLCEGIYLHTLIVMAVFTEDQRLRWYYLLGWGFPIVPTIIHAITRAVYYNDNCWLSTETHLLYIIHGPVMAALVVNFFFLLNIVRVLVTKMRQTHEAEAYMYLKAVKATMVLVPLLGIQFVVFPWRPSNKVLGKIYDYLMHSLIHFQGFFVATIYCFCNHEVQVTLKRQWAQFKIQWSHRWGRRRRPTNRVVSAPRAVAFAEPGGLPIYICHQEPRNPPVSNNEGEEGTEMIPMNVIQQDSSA
T2 sequence (Q9JJ73 23-147 partner): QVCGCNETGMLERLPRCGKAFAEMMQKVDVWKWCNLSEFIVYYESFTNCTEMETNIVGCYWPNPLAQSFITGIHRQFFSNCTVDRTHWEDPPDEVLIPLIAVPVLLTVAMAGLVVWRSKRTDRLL
Protocol: Assay (VI)—Determination of the Binding to the Rat Amylin Receptor
The assay was performed as described above (Assay (V)—Determination of binding to the human amylin receptor) with the exception that we used membranes prepared from BHK tk'ts 13 cells that were transiently transfected with the rat calcitonin receptor rat RAMP 3 at an equimolar ratio […]. The BHK tk'ts 13 cells were transiently transfected with rat calcitonin receptor using FuGENE® 6 (Roche), according to the manufacturer's recommendations. Cells were grown in DMEM with 10% FBS and 1% Pen/Strep. Approximately 48 hours after transfection, the cells were harvested and membranes were prepared.

[2] = biological target: T3, human calcitonin receptor (Homo sapiens, UniProt P30988); assay: Assay (II)a functional assay, human calcitonin receptor (CRE luciferase, BHK cells);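 note: luminescence from a CRE-driven luciferase reporter, read by single photon counting after cells were exposed to test samples for 3 h at 37 °C under 5% CO2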; type: cell-based; conditions: read-out: hCTR funct. EC50
T3 construct: expressed in transfected cells
T3 sequence (P30988 25-474): T1 sequence (P30988 25-474)
Protocol: Assay (II)—Functional Assays
Consequently, transcription is activated by promoters containing multiple copies of the cAMP response element (CRE).
The cell line was further transfected with RAMP-3, using standard methods.
After incubation overnight at 37° C. and 5% CO2, the growth medium was replaced by 50 μl/well assay medium (DMEM (without phenol red), Glutamax™, 10% FBS, and 10 mM Hepes, pH 7.4). Further, 50 μl/well of standard or sample in assay buffer were added. After 3 hours incubation at 37° C. and 5% CO2, the assay medium with standard or sample were removed and replaced by 100 μl/well PBS. Further, 100 μl/well LucLite™ was added. The plates were sealed and incubated at room temperature for 30 minutes. Finally, luminescence was measured on a TopCounter (Packard) in SPC (single photon counting) mode.

human amylin receptor = biological target: T4, human amylin receptor (Homo sapiens, UniProt O60896+P30988); assay: Assay (V) binding to the human amylin receptor (SPA, 125I-rat amylin); conditions: human amylin receptor membranes, SPA; read-out: hAmylin-R bind IC50
T4 construct: expressed in transfected cells
T4 sequence (P30988 25-474): T1 sequence (P30988 25-474)
T4 sequence (O60896 24-148 partner): T1 sequence (O60896 24-148 partner)
Method in brief: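 IC50, taken as receptor affinity, came from one-site binding competition analysis of scintillation proximity counts. Amylin 3(a)/CRE-luc cell membranes (35 ng/μL final) were mixed with SPA beads (0.05 mg/well) in 50 mM Hepes pH 7.4 containing CaCl2, MgCl2, 0.1% OA and 0.02% Tween20.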

[3] = biological target: T3, human calcitonin receptor; assay: Assay (VII) binding to the human calcitonin receptor (SPA, 125I-Calcitonin); conditions: read-out: hCTR bind IC50;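 note: cell membranes coupled to SPA beads, competitive displacement read by scintillation counting, IC50 derived from a one-site competition fit as a measure of receptor affinity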
Protocol: Membranes were prepared in the following way; the cells were rinsed with PBS and incubated with Versene for approximately 5 min before harvesting. The cells were flushed with PBS and the cell-suspension was centrifuged for 5 min at 1000 rpm. […] The resulting pellet was resuspended in buffer 2 and protein concentration was measured (BCA protein Assay, Pierce). The homogenate was kept cold during the whole procedure. The membranes were kept at −80° C. until use. Assay was performed in a 384 well Optiplate (PerkinElmer) in a total volume of 40 ul. Membranes were mixed with SPA beads. Final concentration of membranes 35 ng/μL final and Final concentration of SPA beads was 0.05 mg/well. Test-compounds were dissolved in DMSO and further diluted in assay buffer (50 mM Hepes, pH 7.4, 1 mM CaCl2, 5 mM MgCl2, 0.1% OA and 0.02% Tween20). […] Samples were analyzed on TopCounter™ (Packard). The IC50 was calculated using (one site binding competition analysis) GraphPad Prism5 as a measure of receptor affinity.

[4] = Table 6, human functional selectivity (hCTR EC50 / hAmylin-R EC50)

SMILES	Ratio hCT/hAmylin funct. [1, 4]	Ratio hCT/hAmylin funct. ([1]; Table 6i, hCTR funct. EC50 / hAmylin-R funct. EC50)	Ratio rCT/rAmylin binding (rat amylin receptor; Table 7b)	Ratio rCT/rAmylin binding (rat amylin receptor)	Ratio rCT/rAmylin binding (rat amylin receptor; Table 7c)	EC50 ([1]; functional assay, human amylin receptor, read-out: hAmylin-R funct. EC50)	EC50 [2]	IC50 (human amylin receptor)	IC50 [3]
CC(C)C[C@H](NC(=O)[C@H](CCCNC(=N)N)NC(=O)[C@H](CCC(N)=O)NC(=O)[C@@H](NC(=O)[C@H](C)NC(=O)[C@@H]1CSSC[C@H](NC(=O)[C@H](CCCCN)NC(=O)CC[C@H](NC(=O)CCCCCCCCCCCCCCCCCCC(=O)O)C(=O)O)C(=O)N[C@@H](CC(N)=O)C(=O)N[C@@H]([C@@H](C)O)C(=O)N[C@@H](C)C(=O)N[C@@H]([C@@H](C)O)C(=O)N1)[C@@H](C)O)C(=O)N[C@@H](C)C(=O)N[C@@H](CCC(=O)O)C(=O)N[C@@H](Cc1ccccc1)C(=O)N[C@@H](CC(C)C)C(=O)N[C@@H](CCCNC(=N)N)C(=O)N[C@@H](Cc1c[nH]cn1)C(=O)N[C@@H](CO)C(=O)N[C@@H](CO)C(=O)N1CCC[C@H]1C(=O)N[C@@H](CC(N)=O)C(=O)N[C@@H](Cc1ccccc1)C(=O)NCC(=O)N[C@@H](C)C(=O)N1CCC[C@H]1C(=O)N[C@@H](CC(C)C)C(=O)N[C@@H](CO)C(=O)N[C@@H](CO)C(=O)N[C@H](C(=O)N[C@@H](CC(N)=O)C(=O)N[C@H](C(=O)NCC(=O)N[C@@H](CO)C(=O)N[C@@H](CC(N)=O)C(=O)N[C@H](C(=O)N[C@@H](Cc1ccc(O)cc1)C(N)=O)[C@@H](C)O)C(C)C)[C@@H](C)O [Example 7] ({C20 diacid-γGlu}-KCNTATCATQRLAEFLRHSSPNFGAPLSSTNVGSNTY-NH2; disulfide 2-7)	4.5	4.5	42.0	42.0	–	–	–	–	–
CC[C@H](C)[C@H](NC(=O)[C@H](C)NC(=O)CNC(=O)[C@H](Cc1ccccc1)NC(=O)[C@H](CC(N)=O)NC(=O)[C@@H]1CCCN1C(=O)[C@H](CO)NC(=O)[C@H](CO)NC(=O)[C@H](Cc1c[nH]cn1)NC(=O)[C@H](CCCNC(=N)N)NC(=O)[C@H](CC(C)C)NC(=O)[C@H](Cc1ccccc1)NC(=O)[C@H](CC(N)=O)NC(=O)[C@H](C)NC(=O)[C@H](CC(C)C)NC(=O)[C@H](CCCNC(=N)N)NC(=O)[C@H](CCC(N)=O)NC(=O)[C@@H](NC(=O)[C@H](C)NC(=O)[C@@H]1CSSC[C@H](NC(=O)[C@@H](N)CCCCNC(=O)COCCOCCNC(=O)CC[C@H](NC(=O)CCCCCCCCCCCCCCCCCCC(=O)O)C(=O)O)C(=O)N[C@@H](CC(N)=O)C(=O)N[C@@H]([C@@H](C)O)C(=O)N[C@@H](C)C(=O)N[C@@H]([C@@H](C)O)C(=O)N1)[C@@H](C)O)C(=O)N1CCC[C@H]1C(=O)N[C@@H](CO)C(=O)N[C@@H](CO)C(=O)N[C@H](C(=O)N[C@@H](CC(N)=O)C(=O)N[C@H](C(=O)NCC(=O)N[C@@H](CO)C(=O)N[C@@H](CC(N)=O)C(=O)N[C@H](C(=O)N[C@@H](Cc1ccc(O)cc1)C(N)=O)[C@@H](C)O)C(C)C)[C@@H](C)O [Example 41]	–	–	54.0	54.0	54.0	–	–	–	–
CC[C@H](C)[C@H](NC(=O)[C@H](C)NC(=O)CNC(=O)[C@H](Cc1ccccc1)NC(=O)[C@H](CC(N)=O)NC(=O)[C@@H]1CCCN1C(=O)[C@H](CO)NC(=O)[C@H](CO)NC(=O)[C@H](Cc1c[nH]cn1)NC(=O)[C@H](CCCNC(=N)N)NC(=O)[C@H](CC(C)C)NC(=O)[C@H](Cc1ccccc1)NC(=O)[C@H](CCCNC(=N)N)NC(=O)[C@H](C)NC(=O)[C@H](CC(C)C)NC(=O)[C@H](CCCNC(=N)N)NC(=O)[C@H](CCC(N)=O)NC(=O)[C@@H](NC(=O)[C@H](C)NC(=O)[C@@H]1CSSC[C@H](NC(=O)[C@@H](N)CCCCNC(=O)COCCOCCNC(=O)CC[C@H](NC(=O)CCCCCCCCCCCCCCCCCCC(=O)O)C(=O)O)C(=O)N[C@@H](CC(N)=O)C(=O)N[C@@H]([C@@H](C)O)C(=O)N[C@@H](C)C(=O)N[C@@H]([C@@H](C)O)C(=O)N1)[C@@H](C)O)C(=O)N1CCC[C@H]1C(=O)N[C@@H](CO)C(=O)N[C@@H](CO)C(=O)N[C@H](C(=O)N[C@@H](CC(N)=O)C(=O)N[C@H](C(=O)NCC(=O)N[C@@H](CO)C(=O)N[C@@H](CC(N)=O)C(=O)N[C@H](C(=O)N[C@@H](Cc1ccc(O)cc1)C(N)=O)[C@@H](C)O)C(C)C)[C@@H](C)O [Example 82] (H-K([AEEA-γGlu-C20 diacid])CNTATCATQRLARFLRHSSPNFGAIPSSTNVGSNTY-NH2; disulfide 2-7 (inferred); N-terminus and C-terminus assumed)	–	–	87.0	87.0	87.0	–	–	–	–
CC[C@H](C)[C@H](NC(=O)[C@H](C)NC(=O)CNC(=O)[C@H](Cc1ccccc1)NC(=O)[C@H](CC(N)=O)NC(=O)[C@@H]1CCCN1C(=O)[C@H](CO)NC(=O)[C@H](CO)NC(=O)[C@H](Cc1c[nH]cn1)NC(=O)[C@H](CCCNC(=N)N)NC(=O)[C@H](CC(C)C)NC(=O)[C@H](Cc1ccccc1)NC(=O)[C@H](CC(=O)O)NC(=O)[C@H](C)NC(=O)[C@H](CC(C)C)NC(=O)[C@H](CCCNC(=N)N)NC(=O)[C@H](CCC(N)=O)NC(=O)[C@@H](NC(=O)[C@H](C)NC(=O)[C@@H]1CSSC[C@H](NC(=O)[C@@H](N)CCCCNC(=O)CC[C@H](NC(=O)CCCCCCCCCCCCCCCCCCC(=O)O)C(=O)O)C(=O)N[C@@H](CC(N)=O)C(=O)N[C@@H]([C@@H](C)O)C(=O)N[C@@H](C)C(=O)N[C@@H]([C@@H](C)O)C(=O)N1)[C@@H](C)O)C(=O)N1CCC[C@H]1C(=O)N[C@@H](CO)C(=O)N[C@@H](CO)C(=O)N[C@H](C(=O)N[C@@H](CC(N)=O)C(=O)N[C@H](C(=O)NCC(=O)N1CCC[C@H]1C(=O)N[C@@H](CCC(=O)O)C(=O)N[C@H](C(=O)N[C@@H](Cc1ccc(O)cc1)C(N)=O)[C@@H](C)O)C(C)C)[C@@H](C)O [Example 123] (H-K([γGlu-C20 diacid])CNTATCATQRLADFLRHSSPNFGAIPSSTNVGPETY-NH2; disulfide 2-7 (inferred); N-terminus and C-terminus assumed)	3.9	–	62.0	62.0	–	–	–	–	–
CC[C@H](C)[C@H](NC(=O)[C@H](C)NC(=O)CNC(=O)[C@H](Cc1ccccc1)NC(=O)[C@H](CC(N)=O)NC(=O)[C@@H]1CCCN1C(=O)[C@H](CO)NC(=O)[C@H](CO)NC(=O)[C@H](Cc1c[nH]cn1)NC(=O)[C@H](CCCNC(=N)N)NC(=O)[C@H](CC(C)C)NC(=O)[C@H](Cc1ccccc1)NC(=O)[C@@H](CC(=O)O)NC(=O)[C@H](C)NC(=O)[C@H](CC(C)C)NC(=O)[C@H](CCCNC(=N)N)NC(=O)[C@H](CCC(N)=O)NC(=O)[C@@H](NC(=O)[C@H](C)NC(=O)[C@@H]1CSSC[C@H](NC(=O)[C@@H](N)CCCCNC(=O)CC[C@H](NC(=O)CC[C@H](NC(=O)CCCCCCCCCCCCCCCCCCC(=O)O)C(=O)O)C(=O)O)C(=O)N[C@@H](CC(N)=O)C(=O)N[C@@H]([C@@H](C)O)C(=O)N[C@@H](C)C(=O)N[C@@H]([C@@H](C)O)C(=O)N1)[C@@H](C)O)C(=O)N1CCC[C@H]1C(=O)N[C@@H](CO)C(=O)N[C@@H](CO)C(=O)N[C@H](C(=O)N[C@@H](CC(N)=O)C(=O)N[C@H](C(=O)NCC(=O)N[C@@H](CO)C(=O)N[C@@H](CCCNC(=N)N)C(=O)N[C@H](C(=O)N[C@@H](Cc1ccc(O)cc1)C(N)=O)[C@@H](C)O)C(C)C)[C@@H](C)O [Example 131]	–	–	–	–	–	0.383 nM	100 nM	0.365 nM	112 nM

— patent US8575091B1, “Amylin analogues and pharmaceutical compositions thereof” (Novo Nordisk A/S, priority 2012, dated 2013)
